Experimental data published in patent US20250197372A1 (priority 2020, published 2025).
Read-outs that look alike come from different tables or passages of the source.

Tests used:
[1] = target: T1, recombinant human GBA (beta-glucocerebrosidase) (Homo sapiens, UniProt P04062); test: Beta-glucocerebrosidase (GBA, glucosylceramidase) assay (4-methylumbelliferyl-beta-D-pyranoside substrate, fluorescence); assay type: biochemical
T1 sequence (P04062 40-536): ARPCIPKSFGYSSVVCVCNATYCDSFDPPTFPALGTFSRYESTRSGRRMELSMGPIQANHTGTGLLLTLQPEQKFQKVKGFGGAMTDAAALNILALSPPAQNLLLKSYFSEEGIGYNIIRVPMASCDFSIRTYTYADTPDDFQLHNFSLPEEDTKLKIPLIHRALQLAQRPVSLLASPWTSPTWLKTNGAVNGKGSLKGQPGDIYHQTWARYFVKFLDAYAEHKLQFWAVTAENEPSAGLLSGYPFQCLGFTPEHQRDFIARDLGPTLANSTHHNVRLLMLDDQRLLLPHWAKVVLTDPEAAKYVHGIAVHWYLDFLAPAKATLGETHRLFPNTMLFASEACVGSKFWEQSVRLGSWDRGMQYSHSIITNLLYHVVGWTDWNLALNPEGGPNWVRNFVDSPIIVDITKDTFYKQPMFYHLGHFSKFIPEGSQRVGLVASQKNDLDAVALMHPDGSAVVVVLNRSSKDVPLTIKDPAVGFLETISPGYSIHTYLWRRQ
Description: Beta-glucocerebrosidase (GBA, also referred to glucosylceramidase): To analyze inhibitory effects of a test compound, commercially available recombinant human GBA was incubated with multiple dilutions of test compound for 60 minutes at 37° C. 4-methylumbelliferyl-beta-D-pyranoside was then introduced to the mixture as substrate. Following incubation for 60 minutes at 37° C., 1,4-methyllumbelliferone was generated, and the reaction was stopped with the stop solution (0.5 M glycine; 0.3 M NaOH, pH 10). 1,4-methyllumbelliferone was detected by fluorescence (excitation at 365 nm, emission at 440 nm). Relative fluorescence compared to untreated enzymatic activity and test compound concentration is then plotted as a function of percent inhibition. The IC50 was determined using a 4-PL curve fit as the measure of relative inhibitory activity of each test compound (see Table 3).

[2] = target: T2, recombinant alpha-glucosidase II (murine full-length glucosidase II, alpha and beta subunits, Glu 2) (Mus musculus, UniProt Q8BHN3); test: Alpha-glucosidase II assay (4-methylumbelliferyl-alpha-D-pyranoside substrate, fluorescence); assay type: biochemical
T2 construct: made in house; host or cells: HEK-293T cells transduced with BacMam viruses (75% alpha, 25% beta); protein harvested from culture supernatant

[3] = Glucosidase 2, read-out: Glu2 IC50

T2 sequence (O08795 15-521): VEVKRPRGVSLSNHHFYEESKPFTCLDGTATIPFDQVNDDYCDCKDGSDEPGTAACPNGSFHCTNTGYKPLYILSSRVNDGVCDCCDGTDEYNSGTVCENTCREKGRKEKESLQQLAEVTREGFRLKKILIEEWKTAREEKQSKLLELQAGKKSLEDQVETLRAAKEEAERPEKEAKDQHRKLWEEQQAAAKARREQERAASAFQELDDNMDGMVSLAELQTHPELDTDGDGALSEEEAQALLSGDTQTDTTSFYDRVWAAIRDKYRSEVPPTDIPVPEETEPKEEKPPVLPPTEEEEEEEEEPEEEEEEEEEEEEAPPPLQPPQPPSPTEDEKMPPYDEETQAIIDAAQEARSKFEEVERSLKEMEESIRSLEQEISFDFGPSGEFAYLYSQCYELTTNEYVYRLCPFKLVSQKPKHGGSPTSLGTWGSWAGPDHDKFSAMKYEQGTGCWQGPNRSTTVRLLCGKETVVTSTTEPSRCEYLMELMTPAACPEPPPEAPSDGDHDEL
T2 sequence (Q8BHN3 33-944): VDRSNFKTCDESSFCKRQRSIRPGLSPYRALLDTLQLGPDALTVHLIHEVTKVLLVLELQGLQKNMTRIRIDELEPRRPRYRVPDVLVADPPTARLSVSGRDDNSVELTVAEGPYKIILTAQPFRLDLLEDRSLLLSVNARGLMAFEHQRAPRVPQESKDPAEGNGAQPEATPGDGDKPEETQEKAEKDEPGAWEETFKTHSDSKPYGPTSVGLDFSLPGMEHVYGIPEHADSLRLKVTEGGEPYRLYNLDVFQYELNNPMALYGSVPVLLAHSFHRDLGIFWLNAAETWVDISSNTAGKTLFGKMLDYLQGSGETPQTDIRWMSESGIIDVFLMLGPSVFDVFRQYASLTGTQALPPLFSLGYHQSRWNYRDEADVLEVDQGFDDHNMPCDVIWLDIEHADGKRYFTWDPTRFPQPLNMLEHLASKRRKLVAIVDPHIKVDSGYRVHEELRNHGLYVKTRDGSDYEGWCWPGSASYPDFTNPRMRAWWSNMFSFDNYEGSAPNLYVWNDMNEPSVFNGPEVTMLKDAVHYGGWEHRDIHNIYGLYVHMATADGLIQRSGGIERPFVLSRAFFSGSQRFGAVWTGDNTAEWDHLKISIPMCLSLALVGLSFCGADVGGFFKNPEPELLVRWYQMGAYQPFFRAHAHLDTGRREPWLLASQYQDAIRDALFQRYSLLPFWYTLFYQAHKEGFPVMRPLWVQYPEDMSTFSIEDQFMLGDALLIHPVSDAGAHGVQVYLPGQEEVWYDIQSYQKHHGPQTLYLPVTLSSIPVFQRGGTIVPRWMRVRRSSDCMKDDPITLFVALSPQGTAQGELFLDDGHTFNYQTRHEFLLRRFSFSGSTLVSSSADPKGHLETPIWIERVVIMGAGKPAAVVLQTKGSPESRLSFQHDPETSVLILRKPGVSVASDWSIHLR

| SMILES | IC50 [1] | IC50 [2] | IC50 [2, 3] |
| --- | --- | --- | --- |
| O=[N+]([O-])c1cc(N2C3CCC2COC3)ccc1NCc1ccc(CN2CC(O)C(O)C(O)C2CO)cc1 (stereo in doubt) [Compound 1018, (2S,3S,4S,5R)-2-(hydroxymethyl)-1-({4-[({2-nitro-4-[(1R,5S)-3-oxa-8-azabicyclo[3.2.1]octan-8-yl]phenyl}amino)methyl]phenyl}methyl) piperidine-3,4,5-triol] | > 100 µM | < 0.001 µM | – |
| [N-]=[N+]=Nc1ccc(NCCc2ccc(CCN3C[C@@H](O)[C@H](O)[C@@H](O)[C@@H]3CO)c3ccccc23)c([N+](=O)[O-])c1 (stereo in doubt) [Compound 1178, (2S,3S,4S,5R)-1-[2-(4-{2-[(4-azido-2-nitrophenyl)amino]ethyl}naphthalen-1-yl)ethyl]-2-(hydroxymethyl)piperidine-3,4,5-triol] | 5.9 µM | – | 9.36 µM |
| OC[C@@H]1[C@@H](O)[C@H](O)[C@@H](O)CN1CCCCCCNc1cc(-c2cccnn2)cc(C2CC2)c1 [Compound 1008, (2R,3R,4R,5S)-1-(6-{[3-cyclopropyl-5-(pyridazin-3-yl)phenyl]amino}hexyl)-2-(hydroxymethyl)piperidine-3,4,5-triol] | 2.33 µM | – | 0.012 µM |
| OC[C@@H]1[C@@H](O)[C@H](O)[C@@H](O)CN1CCCCCCNc1cc(-c2ncccn2)cc(C2CC2)c1 [Compound 1009, (2R,3R,4R,5S)-1-(6-{[3-cyclopropyl-5-(pyrimidin-2-yl)phenyl]amino}hexyl)-2-(hydroxymethyl)piperidine-3,4,5-triol] | 2.59 µM | – | 0.017 µM |
| OC[C@@H]1[C@@H](O)[C@H](O)[C@@H](O)CN1Cc1ccc(CNc2cc(C3CC3)cc(N3CCOCC3)c2)cc1 [Compound 1010, (2R,3R,4R,5S)-1-{[4-({[3-cyclopropyl-5-(morpholin-4-yl)phenyl]amino}methyl)phenyl]methyl}-2-(hydroxymethyl)piperidine-3,4,5-triol] | > 100 µM | – | 1.07 µM |
| OC[C@@H]1[C@@H](O)[C@H](O)[C@@H](O)CN1Cc1ccc(CNc2cc(-c3cccnn3)cc(C3CC3)c2)cc1 [Compound 1012, (2R,3R,4R,5S)-1-{[4-({[3-cyclopropyl-5-(pyridazin-3-yl)phenyl]amino}methyl)phenyl]methyl}-2-(hydroxymethyl)piperidine-3,4,5-triol] | 32.3 µM | – | 1.32 µM |
| OC[C@@H]1[C@@H](O)[C@H](O)[C@@H](O)CN1Cc1ccc(CNc2cc(-c3ncccn3)cc(C3CC3)c2)cc1 [Compound 1013, (2R,3R,4R,5S)-1-{[4-({[3-cyclopropyl-5-(pyrimidin-2-yl)phenyl]amino}methyl)phenyl]methyl}-2-(hydroxymethyl)piperidine-3,4,5-triol] | > 100 µM | – | 0.153 µM |
| C[C@@H]1CN(c2ccc(NCc3ccc(CN4C[C@H](O)[C@@H](O)[C@H](O)[C@H]4CO)cc3)c([N+](=O)[O-])c2)C[C@H](C)O1 [Compound 1014] | > 100 µM | – | 0.004 µM |
| CS(=O)(=O)c1cc(Br)cc(NCc2cccc(CN3C[C@H](O)[C@@H](O)[C@H](O)[C@H]3CO)c2)c1 [Compound 1022, (2R,3R,4R,5S)-1-[(3-{[(3-bromo-5-methanesulfonylphenyl)amino]methyl}phenyl)methyl]-2-(hydroxymethyl)piperidine-3,4,5-triol] | 90.4 µM | – | 7.92 µM |
| Cc1cc(NCc2cccc(CN3C[C@H](O)[C@@H](O)[C@H](O)[C@H]3CO)c2)cc(-c2ncccn2)c1 [Compound 1035, (2R,3R,4R,5S)-2-(hydroxymethyl)-1-{[3-({[3-methyl-5-(pyrimidin-2-yl)phenyl]amino}methyl)phenyl]methyl}piperidine-3,4,5-triol] | > 100 µM | – | 66.5 µM |
| CS(=O)(=O)c1cc(NCc2cccc(CN3C[C@H](O)[C@@H](O)[C@H](O)[C@H]3CO)c2)cc(-c2cccnn2)c1 [Compound 1040, (2R,3R,4R,5S)-2-(hydroxymethyl)-1-{[3-({[3-methanesulfonyl-5-(pyridazin-3-yl)phenyl]amino}methyl)phenyl]methyl}piperidine-3,4,5-triol] | > 100 µM | 4.61 µM | – |
| CS(=O)(=O)c1cc(NCc2cccc(CN3C[C@H](O)[C@@H](O)[C@H](O)[C@H]3CO)c2)cc(-c2ncccn2)c1 [Compound 1041, (2R,3R,4R,5S)-2-(hydroxymethyl)-1-{[3-({[3-methanesulfonyl-5-(pyrimidin-2-yl)phenyl]amino}methyl)phenyl]methyl}piperidine-3,4,5-triol] | > 100 µM | – | 7.18 µM |
| N#Cc1cc(NCc2cccc(CN3C[C@H](O)[C@@H](O)[C@H](O)[C@H]3CO)c2)cc(C2=COCCO2)c1 [Compound 1044, 3-(5,6-dihydro-1,4-dioxin-2-yl)-5-{[(3-{[(2R,3R,4R,5S)-3,4,5-trihydroxy-2-(hydroxymethyl)piperidin-1-yl]methyl}phenyl)methyl]amino}benzonitrile] | 53.2 µM | – | 2.67 µM |
| Cc1cc(NCc2ccc(CN3C[C@H](O)[C@@H](O)[C@H](O)[C@H]3CO)cc2)cc(-c2cccnn2)c1 [Compound 1052, (2R,3R,4R,5S)-2-(hydroxymethyl)-1-{[4-({[3-methyl-5-(pyridazin-3-yl)phenyl]amino}methyl)phenyl]methyl}piperidine-3,4,5-trio] | 84.5 µM | – | 0.179 µM |
| CS(=O)(=O)c1cc(NCc2ccc(CN3C[C@H](O)[C@@H](O)[C@H](O)[C@H]3CO)cc2)cc(-c2cccnn2)c1 [Compound 1058, (2R,3R,4R,5S)-2-(hydroxymethyl)-1-{[4-({[3-methanesulfonyl-5-(pyridazin-3-yl)phenyl]amino}methyl)phenyl]methyl}piperidine-3,4,5-triol] | > 100 µM | – | 0.114 µM |
| O=[N+]([O-])c1cc(N2CCOCC2)ccc1NCc1cccc(CN2C[C@H](O)[C@@H](O)[C@H](O)[C@H]2CO)c1 [Compound 1067, (2R,3R,4R,5S)-2-(hydroxymethyl)-1-{[3-({[4-(morpholin-4-yl)-2-nitrophenyl]amino}methyl)phenyl]methyl}piperidine-3,4,5-triol] | 3.72 µM | – | 12.8 µM |
| OC[C@@H]1[C@@H](O)[C@H](O)[C@@H](O)CN1Cc1ccc(CNc2ccc(N3CCOCC3)cc2)cc1 [Compound 1068] | > 100 µM | – | 1.58 µM |
| OC[C@@H]1[C@@H](O)[C@H](O)[C@@H](O)CN1CCc1ccc(CCNc2cc(Cl)cc(-c3ncon3)c2)cc1 [Compound 1113, (2R,3R,4R,5S)-1-{2-[4-(2-{[3-chloro-5-(1,2,4-oxadiazol-3-yl)phenyl]amino}ethyl)phenyl]ethyl}-2-(hydroxymethyl)piperidine-3,4,5-triol] | 6.29 µM | 0.296 µM | – |
| CCCc1nc(-c2cc(Cl)cc(NCCc3ccc(CCN4C[C@H](O)[C@@H](O)[C@H](O)[C@H]4CO)cc3)c2)no1 [Compound 1123, (2R,3R,4R,5S)-1-{2-[4-(2-{[3-chloro-5-(5-propyl-1,2,4-oxadiazol-3-yl)phenyl]amino}ethyl)phenyl]ethyl}-2-(hydroxymethyl)piperidine-3,4,5-triol] | 0.627 µM | – | 0.329 µM |
| COC(OC)c1cc(NCCCCCCN2C[C@H](O)[C@@H](O)[C@H](O)[C@H]2CO)cc(-c2ncccn2)c1 [Compound 1124, (2R,3R,4R,5S)-1-(6-{[3-(dimethoxymethyl)-5-(pyrimidin-2-yl)phenyl]amino}hexyl)-2-(hydroxymethyl)piperidine-3,4,5-triol] | 3 µM | – | 0.018 µM |
| CC(=O)Nc1cc(NCCCCCCN2C[C@H](O)[C@@H](O)[C@H](O)[C@H]2CO)cc(-c2ncccn2)c1 [Compound 1125, N-[3-(pyrimidin-2-yl)-5-({6-[(2R,3R,4R,5S)-3,4,5-trihydroxy-2-(hydroxymethyl)piperidin-1-yl]hexyl}amino)phenyl]acetamide] | 9.69 µM | – | 0.019 µM |
| CN(C)C(=O)c1cc(NCCCCCCN2C[C@H](O)[C@@H](O)[C@H](O)[C@H]2CO)cc(-c2ncccn2)c1 [Compound 1126, N,N-dimethyl-3-(pyrimidin-2-yl)-5-({6-[(2R,3R,4R,5S)-3,4,5-trihydroxy-2-(hydroxymethyl)piperidin-1-yl]hexyl}amino)benzamide] | 7.04 µM | – | 0.035 µM |
| OC[C@@H]1[C@@H](O)[C@H](O)[C@@H](O)CN1CCc1ccc(CCNc2cc(Cl)cc(C3=CCOCC3)c2)cc1 [Compound 1160, (2R,3R,4R,5S)-1-{2-[4-(2-{[3-chloro-5-(3,6-dihydro-2H-pyran-4-yl)phenyl]amino}ethyl)phenyl]ethyl}-2-(hydroxymethyl)piperidine-3,4,5-triol] | 1.86 µM | – | – |
